Test system: Acinetobacter baumannii strains
Assay: Antibiotic susceptibility test (CLSI disk diffusion test method, read per CLSI 2016); as to antibiotic susceptibility S/I/R: key: ‘S’ means susceptible; ‘I’ means intermediate; ‘R’ means resistant; as to antibiotic susceptibility class: key: ‘S’ means susceptible; ‘I’ means intermediate; ‘R’ means resistant; as to susceptibility category (S/I/R): key: ‘S’ means susceptible; ‘I’ means intermediate; ‘R’ means resistant
Format: cell-based
Design: antibiotic susceptibility test value / susceptibility test value (number given before S/I/R) / antibiotic susceptibility value: unit not given here

gentamicin
antibiotic susceptibility class (host strain YMC14/01/C29): R | antibiotic susceptibility test value (host strain YMC14/01/C29): 16 | antibiotic susceptibility class (host strain YMC14/01/IP122): R | antibiotic susceptibility test value (host strain YMC14/01/IP122): 16 | antibiotic susceptibility class (host strain YMC14/01/L8): R | antibiotic susceptibility test value (host strain YMC14/01/L8): 16 | antibiotic susceptibility class (host strain YMC14/01/P31): R | antibiotic susceptibility test value (host strain YMC14/01/P31): 16 | antibiotic susceptibility class (host strain YMC14/01/P117): R | antibiotic susceptibility test value (host strain YMC14/01/P117): 16 | antibiotic susceptibility class (host strain YMC14/01/P224): R | antibiotic susceptibility test value (host strain YMC14/01/P224): 16 | antibiotic susceptibility class (host strain YMC14/01/P727): R | antibiotic susceptibility test value (host strain YMC14/01/P727): 16 | antibiotic susceptibility class (host strain YMC14/01/P728): R | antibiotic susceptibility test value (host strain YMC14/01/P728): 16 | antibiotic susceptibility class (host strain YMC14/01/R130): R | antibiotic susceptibility test value (host strain YMC14/01/R130): 16 | antibiotic susceptibility class (host strain YMC14/01/R160): R | antibiotic susceptibility test value (host strain YMC14/01/R160): 16 | antibiotic susceptibility class (host strain YMC14/01/R198): R | antibiotic susceptibility test value (host strain YMC14/01/R198): 16 | antibiotic susceptibility class (host strain YMC14/01/R257): S | antibiotic susceptibility test value (host strain YMC14/01/R257): 1 | antibiotic susceptibility class (host strain YMC14/01/R270): R | antibiotic susceptibility test value (host strain YMC14/01/R270): 16 | antibiotic susceptibility class (host strain YMC14/01/R324): R | antibiotic susceptibility test value (host strain YMC14/01/R324): 16 | antibiotic susceptibility class (host strain YMC14/01/R443): R | antibiotic susceptibility test value (host strain YMC14/01/R443): 16 | antibiotic susceptibility class (host strain YMC14/01/R451): R | antibiotic susceptibility test value (host strain YMC14/01/R451): 16 | antibiotic susceptibility class (host strain YMC14/01/R560): S | antibiotic susceptibility test value (host strain YMC14/01/R560): 2 | antibiotic susceptibility class (host strain YMC14/01/R617): R | antibiotic susceptibility test value (host strain YMC14/01/R617): 16 | antibiotic susceptibility class (host strain YMC14/01/R671): R | antibiotic susceptibility test value (host strain YMC14/01/R671): 16 | antibiotic susceptibility class (host strain YMC14/01/R732): R | antibiotic susceptibility test value (host strain YMC14/01/R732): 16 | antibiotic susceptibility class (host strain YMC14/01/R767): R | antibiotic susceptibility test value (host strain YMC14/01/R767): 16 | antibiotic susceptibility class (host strain YMC14/01/R904): R | antibiotic susceptibility test value (host strain YMC14/01/R904): 16 | antibiotic susceptibility class (host strain YMC14/01/R905): R | antibiotic susceptibility test value (host strain YMC14/01/R905): 16 | antibiotic susceptibility class (host strain YMC14/01/R921): I | antibiotic susceptibility test value (host strain YMC14/01/R921): 8 | antibiotic susceptibility class (host strain YMC14/01/R941): R | antibiotic susceptibility test value (host strain YMC14/01/R941): 16 | antibiotic susceptibility class (host strain YMC14/01/R958): R | antibiotic susceptibility test value (host strain YMC14/01/R958): 16 | antibiotic susceptibility class (host strain YMC14/01/R1006): R | antibiotic susceptibility test value (host strain YMC14/01/R1006): 16 | antibiotic susceptibility class (host strain YMC14/01/R1199): R | antibiotic susceptibility test value (host strain YMC14/01/R1199): 16 | antibiotic susceptibility class (host strain YMC14/01/R1659): R | antibiotic susceptibility test value (host strain YMC14/01/R1659): 16 | antibiotic susceptibility class (host strain YMC14/01/R1722): R | antibiotic susceptibility test value (host strain YMC14/01/R1722): 16 | antibiotic susceptibility class (host strain YMC14/01/R1752): R | antibiotic susceptibility test value (host strain YMC14/01/R1752): 16 | antibiotic susceptibility class (host strain YMC14/01/R2429): R | antibiotic susceptibility test value (host strain YMC14/01/R2429): 16 | antibiotic susceptibility class (host strain YMC14/01/R2572): R | antibiotic susceptibility test value (host strain YMC14/01/R2572): 16 | antibiotic susceptibility class (host strain YMC14/01/R2855): R | antibiotic susceptibility test value (host strain YMC14/01/R2855): 16 | antibiotic susceptibility class (host strain YMC14/01/R2945): R | antibiotic susceptibility test value (host strain YMC14/01/R2945): 16 | antibiotic susceptibility class (host strain YMC14/01/R3007): R | antibiotic susceptibility test value (host strain YMC14/01/R3007): 16 | antibiotic susceptibility class (host strain YMC14/01/R3129): R | antibiotic susceptibility test value (host strain YMC14/01/R3129): 16 | antibiotic susceptibility class (host strain YMC14/01/R3317): R | antibiotic susceptibility test value (host strain YMC14/01/R3317): 16 | antibiotic susceptibility class (host strain YMC14/01/R3474): R | antibiotic susceptibility test value (host strain YMC14/01/R3474): 16 | antibiotic susceptibility class (host strain YMC14/01/R3574): R | antibiotic susceptibility test value (host strain YMC14/01/R3574): 16 | antibiotic susceptibility class (host strain YMC14/01/U313): R | antibiotic susceptibility test value (host strain YMC14/01/U313): 16 | antibiotic susceptibility class (host strain YMC14/01/U318): R | antibiotic susceptibility test value (host strain YMC14/01/U318): 16 | antibiotic susceptibility class (host strain YMC14/02/L18): R | antibiotic susceptibility test value (host strain YMC14/02/L18): 16 | antibiotic susceptibility class (host strain YMC14/02/P47): R | antibiotic susceptibility test value (host strain YMC14/02/P47): 16 | antibiotic susceptibility class (host strain YMC14/02/R1860): I | antibiotic susceptibility test value (host strain YMC14/02/R1860): 8 | antibiotic susceptibility class (host strain YMC14/02/R2417): R | antibiotic susceptibility test value (host strain YMC14/02/R2417): 16 | antibiotic susceptibility class (host strain YMC14/02/R2599): S | antibiotic susceptibility test value (host strain YMC14/02/R2599): 2 | antibiotic susceptibility class (host strain YMC14/02/R2668): R | antibiotic susceptibility test value (host strain YMC14/02/R2668): 16 | antibiotic susceptibility class (host strain YMC14/02/R2758): R | antibiotic susceptibility test value (host strain YMC14/02/R2758): 16 | antibiotic susceptibility class (host strain YMC14/02/R2781): R | antibiotic susceptibility test value (host strain YMC14/02/R2781): 16 | antibiotic susceptibility class (host strain YMC14/02/R3106): R | antibiotic susceptibility test value (host strain YMC14/02/R3106): 16 | antibiotic susceptibility class (host strain YMC14/02/R3419): R | antibiotic susceptibility test value (host strain YMC14/02/R3419): 16 | antibiotic susceptibility class (host strain YMC14/02/U1607): R | antibiotic susceptibility test value (host strain YMC14/02/U1607): 16 | antibiotic susceptibility class (host strain YMC14/03/L9): R | antibiotic susceptibility test value (host strain YMC14/03/L9): 16 | antibiotic susceptibility class (host strain YMC14/03/P471): S | antibiotic susceptibility test value (host strain YMC14/03/P471): 2 | antibiotic susceptibility class (host strain YMC14/03/R122): R | antibiotic susceptibility test value (host strain YMC14/03/R122): 16 | antibiotic susceptibility class (host strain YMC14/03/R217): R | antibiotic susceptibility test value (host strain YMC14/03/R217): 16 | antibiotic susceptibility class (host strain YMC14/03/R380): R | antibiotic susceptibility test value (host strain YMC14/03/R380): 16 | antibiotic susceptibility class (host strain YMC14/03/R618): S | antibiotic susceptibility test value (host strain YMC14/03/R618): 2 | antibiotic susceptibility class (host strain YMC14/03/R2144): R | antibiotic susceptibility test value (host strain YMC14/03/R2144): 16 | antibiotic susceptibility class (host strain YMC14/03/U4616): R | antibiotic susceptibility test value (host strain YMC14/03/U4616): 16 | antibiotic susceptibility class (host strain YMC14/04/R1078): S | antibiotic susceptibility test value (host strain YMC14/04/R1078): 2 | antibiotic susceptibility class (host strain YMC14/04/R1080): S | antibiotic susceptibility test value (host strain YMC14/04/R1080): 2 | antibiotic susceptibility S/I/R (host strain YMC14/06/R2359): R | antibiotic susceptibility value (host strain YMC14/06/R2359): 16 | susceptibility category (S/I/R) (host strain YMC14/06/R2359): R | susceptibility test value (number given before S/I/R) (host strain YMC14/06/R2359): 16 | antibiotic susceptibility S/I/R (host strain YMC14/08/R1169): R | antibiotic susceptibility value (host strain YMC14/08/R1169): 16 | susceptibility category (S/I/R) (host strain YMC14/08/R1169): R | susceptibility test value (number given before S/I/R) (host strain YMC14/08/R1169): 16 | antibiotic susceptibility S/I/R (host strain YMC14/08/T90): R | antibiotic susceptibility value (host strain YMC14/08/T90): 16 | susceptibility category (S/I/R) (host strain YMC14/08/T90): R | susceptibility test value (number given before S/I/R) (host strain YMC14/08/T90): 16 | antibiotic susceptibility S/I/R (host strain YMC15/02/R436): R | antibiotic susceptibility value (host strain YMC15/02/R436): 16 | susceptibility category (S/I/R) (host strain YMC15/02/R436): R | susceptibility test value (number given before S/I/R) (host strain YMC15/02/R436): 16 | antibiotic susceptibility S/I/R (host strain YMC15/02/T28): R | antibiotic susceptibility value (host strain YMC15/02/T28): 16 | susceptibility category (S/I/R) (host strain YMC15/02/T28): R | susceptibility test value (number given before S/I/R) (host strain YMC15/02/T28): 16 | antibiotic susceptibility S/I/R (host strain YMC15/03/R1604): R | antibiotic susceptibility value (host strain YMC15/03/R1604): 16 | susceptibility category (S/I/R) (host strain YMC15/03/R1604): R | susceptibility test value (number given before S/I/R) (host strain YMC15/03/R1604): 16 | antibiotic susceptibility S/I/R (host strain YMC15/09/R1869): R | antibiotic susceptibility value (host strain YMC15/09/R1869): 16 | susceptibility category (S/I/R) (host strain YMC15/09/R1869): R | susceptibility test value (number given before S/I/R) (host strain YMC15/09/R1869): 16 | antibiotic susceptibility S/I/R (host strain YMC16/01/P11): R | antibiotic susceptibility value (host strain YMC16/01/P11): 16 | susceptibility category (S/I/R) (host strain YMC16/01/P11): R | susceptibility test value (number given before S/I/R) (host strain YMC16/01/P11): 16 | antibiotic susceptibility S/I/R (host strain YMC16/01/R123): R | antibiotic susceptibility value (host strain YMC16/01/R123): 16 | susceptibility category (S/I/R) (host strain YMC16/01/R123): R | susceptibility test value (number given before S/I/R) (host strain YMC16/01/R123): 16 | antibiotic susceptibility S/I/R (host strain YMC16/01/R198): R | antibiotic susceptibility value (host strain YMC16/01/R198): 16 | susceptibility category (S/I/R) (host strain YMC16/01/R198): R | susceptibility test value (number given before S/I/R) (host strain YMC16/01/R198): 16 | antibiotic susceptibility S/I/R (host strain YMC16/01/R353): R
